Assay: xn = mol fraction of the nth substance listed
Conditions: 101.3 kPa, Liquid; for viscosity: Capillary tube (Ostwald / Ubbelohde) method; for mass density: Pycnometric method

OCc1ccccc1 [benzenemethanol] + CN(C)C=O
Conditions	mass density, 298.15 K [kg/m3]	mass density, 303.15 K [kg/m3]	mass density, 308.15 K [kg/m3]	mass density, 313.15 K [kg/m3]	viscosity, 298.15 K [mPa·s]	viscosity, 303.15 K [mPa·s]	viscosity, 308.15 K [mPa·s]	viscosity, 313.15 K [mPa·s]
x2 = 0	1041.3	1037.5	1033.7	1029.4	5.16	4.67	4.004	3.52
x2 = 0.1088	1036.1	1032.3	1028.5	1024.3	4.473	4.06	3.51	3.106
x2 = 0.1712	1032.5	1028.7	1024.9	1020.6	4.011	3.648	3.17	2.817
x2 = 0.3055	1022.7	1018.8	1014.9	1010.6	3.14	2.87	2.517	2.26
x2 = 0.4003	1014.8	1010.8	1006.8	1002.4	2.59	2.378	2.1	1.9
x2 = 0.5393	1001.3	997.2	993.1	988.7	2.02	1.86	1.67	1.52
x2 = 0.5865	996.1	992	987.9	983.4	1.85	1.71	1.541	1.411
x2 = 0.717	980.7	976.4	972.1	967.6	1.44	1.335	1.218	1.127
x2 = 0.7962	970.3	965.9	961.5	956.9	1.23	1.146	1.054	0.982
x2 = 0.8972	957.6	953.1	948.7	944	1.001	0.938	0.872	0.819

CC(=O)c1ccccc1 [acetophenone] + CN(C)C=O
Conditions	mass density, 298.15 K [kg/m3]	mass density, 303.15 K [kg/m3]	mass density, 308.15 K [kg/m3]	mass density, 313.15 K [kg/m3]	viscosity, 298.15 K [mPa·s]	viscosity, 303.15 K [mPa·s]	viscosity, 308.15 K [mPa·s]	viscosity, 313.15 K [mPa·s]
x2 = 0	1024.1	1019.9	1015.7	1011.2	1.68	1.54	1.41	1.31
x2 = 0.1123	1018	1013.9	1009.7	1005.2	1.584	1.453	1.33	1.238
x2 = 0.1641	1015.6	1011.4	1007.2	1002.7	1.544	1.418	1.299	1.206
x2 = 0.308	1008.8	1004.6	1000.4	995.9	1.43	1.314	1.205	1.123
x2 = 0.4328	1001	996.8	992.5	988	1.328	1.221	1.122	1.047
x2 = 0.5286	994.2	989.9	985.6	981.1	1.246	1.148	1.056	0.987
x2 = 0.6256	985.8	981.4	977.1	972.5	1.156	1.069	0.984	0.922
x2 = 0.7165	977.2	972.8	968.4	963.8	1.072	0.995	0.918	0.862
x2 = 0.7943	969	964.5	960	955.3	0.999	0.93	0.861	0.81
x2 = 0.9378	952.5	947.9	943.3	938.5	0.863	0.809	0.755	0.714
